Data published in patent publication US20220380341A1, “INHIBITORS OF HIV-1 NEF FOR THE TREATMENT OF HIV DISEASE” (priority 2018, published 2022).
Like-named read-outs stand apart in the source and are kept apart here.

Tests used:
TZM-bl cell line = type: cell-based
Description: (§1) In particular, the tables show antiretroviral activity as percent inhibition of HIV-1 infectivity at 1 μM. In brief, this assay uses the TZM-bl reporter cell line, which carries a stable copy of the HIV-1 LTR coupled to luciferase. Cells are infected with HIV-1NL4-3 in the presence and absence of each compound, and luciferase activity is measured 48 h later. This assay measures early events in the HIV-1 life cycle, including viral entry, reverse transcription, nuclear entry and integration, and viral transcription. All assays include control cells infected with Nef-defective HIV-1, which replicates at 30-50% of wild-type in this system. Results are normalized to percent inhibition relative to DMSO-treated control cells infected with wild-type HIV-1 (0% inhibition) and DMSO-treated cells infected with Nef-defective HIV-1 (100% of the Nef-dependent effect)—see column 3. In addition, cell viability is measured in the TZM-bl cell line in the presence of each test compound and in the absence of HIV-1 infection, using the Cell Titer Blue cell viability assay (Promega; column 4).

HIV-1 NefNL4-3 = HIV-1 NefNL4-3 (Human immunodeficiency virus type 1 group M subtype B, UniProt P03406, A33V/T15A/T51N/V11I); assay: Surface plasmon resonance binding to recombinant full-length Nef (NL4-3); settings: for T, minutes (residence time): 2-step induced fit, T = 1/koff2; for RU30/RUNef (extent of binding): response units at 30 μM relative to Nef immobilized on the SPR chip
HIV-1NL4-3 = assay: HIV-1 infectivity assay in TZM-bl reporter cell line (LTR-luciferase, 48 h); type: cell-based; settings: for inhibition at 1 µM: Human immunodeficiency virus 1, TZM-bl
Description: as §1

[1] = KD, M, Table 4, SPR fit 2-step induced fit, KD = koff/kon × koff2/(koff2 + kon2)
[2] = Nef NL4-3 Binding, SPR 2-state fitting KD, Table 1, 2-step induced-fit model
[3] = read-out: Nef NL4-3 Binding, SPR 1:1 or 2-site fitting KD2, Table 1, 2-site fit, second component
[4] = 1.0 μM, TZM-bl reporter cell line, Table 4, read-out: % Infectivity Inhibition
[5] = 48 h, Table 1, TZM-bl cells, 1 μM, 48 h, 100% = Nef-defective HIV-1, read-out: HIV-1 Infectivity % Inhibition Norm. to Δ-Nef @ 1 μM
[6] = Table 1, 1:1 Langmuir fit where the KD2 cell says '1 to 1 fitting', else 2-site fit

Structure (SMILES)	% Cell Viability (TZM-bl cell line; human, 1 μM) [%]	Percent Viability @ 1 μM (TZM-bl cells) (TZM-bl cell line; human, 1 μM) [%]	Kd (HIV-1 NefNL4-3) [nM]	Kd (HIV-1 NefNL4-3; [1]) [nM]	Kd (HIV-1 NefNL4-3; [2]) [nM]	T, minutes (residence time) (HIV-1 NefNL4-3; Table 4)	Kd (HIV-1 NefNL4-3; [3]) [nM]	RU30/RUNef (extent of binding) (HIV-1 NefNL4-3)	inhibition at 1 µM (HIV-1NL4-3; [4]) [%]	inhibition at 1 µM (HIV-1NL4-3; [5]) [%]	Nef NL4-3 Binding, SPR 1:1 or 2-site fitting KD1 (HIV-1 NefNL4-3; [6])	Percent Viability @ 1 μM (TZM-bl cells) (TZM-bl cell line) [%]	Kd (HIV-1 NefNL4-3; Table 1, 1:1 Langmuir fit where the KD2 cell says '1 to 1 fitting', else 2-site fit, read-out: Nef NL4-3 Binding, SPR 1:1 or 2-site fitting KD1) [nM]	HIV-1 Infectivity % Inhibition Norm. to Δ-Nef @ 1 μM (HIV-1NL4-3; Table 1, TZM-bl cells, 1 μM, 48 h, 100% = Nef-defective HIV-1) [%]	Kd (HIV-1 NefNL4-3; Table 4, SPR fit 2-step induced fit, KD = koff/kon × koff2/(koff2 + kon2)) [nM]	Kd (HIV-1 NefNL4-3; read-out: Nef NL4-3 Binding, SPR 1:1 or 2-site fitting KD1, Table 1, 1:1 Langmuir fit where the KD2 cell says '1 to 1 fitting', else 2-site fit) [nM]	Kd (HIV-1 NefNL4-3; read-out: Nef NL4-3 Binding, SPR 2-state fitting KD, Table 1, 2-step induced-fit model) [nM]
Oc1c(CC2CCCCO2)c(-c2ccc(C(F)(F)F)cc2)nn1-c1nc2ccccc2[nH]1 (stereo not shown) [Compound I-122, 1-(1H-1,3-benzodiazol-2-yl)-4-[(oxan-2-yl)methyl]-3-[4-(trifluoromethyl)phenyl]-1H-pyrazol-5-ol]	75.2	75.2	1240	2250	1860	1.02E + 01 minutes	11600	1.07E- 02	95.4	95.4	–	–	–	–	–	–	–
COCCc1nn(-c2nc3ccccc3[nH]2)c(O)c1CCc1ccc(F)cc1 [Compound I-125, 1-(1H-1,3-benzodiazol-2-yl)-4-[2-(4-fluorophenyl)ethyl]-3-(2-methoxyethyl)-1H-pyrazol-5-ol]	100	101.1	3070	3130	3130	8.87E + 00 minutes	–	2.86E- 03	21.2	21.2	–	–	–	–	–	–	–
Oc1c(CCc2ccc(F)cc2)c(-c2cnc(C(F)(F)F)nc2)nn1-c1nc2ccccc2[nH]1 [Compound I-126, 1-(1H-1,3-benzodiazol-2-yl)-4-[2-(4-fluorophenyl)ethyl]-3-[2-(trifluoromethyl)pyrimidin-5-yl]-1H-pyrazol-5-ol]	–	107.8	–	–	–	–	–	–	–	-13.9	No Interaction	–	–	–	–	–	–
Cn1cccc(-c2nn(-c3nc4ccccc4[nH]3)c(O)c2CCc2ccc(F)cc2)c1=O [Compound I-127, 3-[1-(1H-1,3-benzodiazol-2-y1)-4-[2-(4-fluorophenyl)ethyl]-5-hydroxy-1H-pyrazol-3-yl]-1-methyl-1,2-dihydropyridin-2-one]	–	–	–	–	–	–	–	–	–	–	–	100.0	2100	2.4	–	–	–
Cc1ccn(CCc2c(-c3ccc(C(F)(F)F)cc3)nn(-c3nc4ccccc4[nH]3)c2O)n1 [Compound I-128, 1-(1H-1,3-benzodiazol-2-yl)-4-[2-(3-methyl-1H-pyrazol-1-yl)ethyl]-3-[4-(trifluoromethyl)phenyl]-1H-pyrazol-5-ol]	97.9	97.9	–	–	–	1.20E + 03 minutes	4330	5.56E- 03	33.5	33.5	–	–	–	–	7.64	0.146	7.64
CC(C)(C)c1nn(-c2nc3ccccc3[nH]2)c(O)c1CCc1ccc(F)cc1 [Compound I-130, 1-(1H-1,3-benzodiazol-2-yl)-3-tert-butyl-4-[2-(4-fluorophenyl)ethyl]-1H-pyrazol-5-ol]	98.7	98.7	702	3800	3800	1.15E + 01 minutes	13000	9.49E- 03	43.6	43.6	–	–	–	–	–	–	–
Oc1c(CCN2CCOCC2)c(-c2ccc(C(F)(F)F)cc2)nn1-c1nc2ccccc2[nH]1 [Compound I-131, 1-(1H-1,3-benzodiazol-2-yl)-4-[2-(morpholin-4-yl)ethyl]-3-[4-(trifluoromethyl)phenyl]-1H-pyrazol-5-ol]	96.4	96.4	1360	4930	4930	5.16E + 00 minutes	17800	1.06E- 02	14.2	14.2	–	–	–	–	–	–	–
O=C1CCCN1CCc1c(-c2ccc(C(F)(F)F)cc2)nn(-c2nc3ccccc3[nH]2)c1O [Compound I-132, 1-{2-[1-(1H-1,3-benzodiazol-2-yl)-5-hydroxy-3-[4-(trifluoromethyl)phenyl]-1H-pyrazol-4-yl]ethyl}pyrrolidin-2-one]	96.5	96.5	61.8	1700	1700	5.46E + 00 minutes	8010	5.62E- 03	15.7	15.7	–	–	–	–	–	–	–
Cn1ccc(-c2nn(-c3nc4ccccc4[nH]3)c(O)c2CCc2ccc(F)cc2)cc1=O [Compound I-133, 4-[1-(1H-1,3-benzodiazol-2-y1)-4-[2-(4-fluorophenyl)ethyl]-5-hydroxy-1H-pyrazol-3-yl]-1-methyl-1,2-dihydropyridin-2-one]	100	102.5	779	1.51	1.51	8.59E + 03 minutes	65300	2.76E- 03	16	16	–	–	–	–	–	–	–
Cn1cc(-c2nn(-c3nc4ccccc4[nH]3)c(O)c2CCc2ccc(F)cc2)ccc1=O [Compound I-134, 5-[1-(1H-1,3-benzodiazol-2-y1)-4-[2-(4-fluorophenyl)ethyl]-5-hydroxy-1H-pyrazol-3-yl]-1-methyl-1,2-dihydropyridin-2-one]	–	100.5	–	–	–	–	–	–	–	45.8	No Interaction	–	–	–	–	–	–
Oc1c(CCc2ccc(F)cc2)c(-c2ccc(C(F)(F)F)nc2)nn1-c1nc2ccccc2[nH]1 [Compound I-135, 1-(1H-1,3-benzodiazol-2-yl)-4-[2-(4-fluorophenyl)ethyl]-3-[6-(trifluoromethyl)pyridin-3-yl]-1H-pyrazol-5-ol]	91.9	91.9	636	14.7	14.7	1.47E + 03 minutes	–	2.87E- 03	35.7	35.7	–	–	–	–	–	–	–
Oc1c(CCc2ccc(F)cc2)c(C2CCCO2)nn1-c1nc2ccccc2[nH]1 (stereo not shown) [Compound I-136, 1-(1H-1,3-benzodiazol-2-yl)-4-[2-(4-fluorophenyl)ethyl]-3-(oxolan-2-yl)-1H-pyrazol-5-ol]	99.9	99.9	160	2460	2460	3.32E + 00 minutes	4770	5.11E- 03	26.5	26.5	–	–	–	–	–	–	–
